Results from patent US9056844B2, “4-substituted-3-benzyloxy-bicyclo[3.1.0]hexane compounds as mGluR 2/3 antagonists” (Eli Lilly and Company, priority 2010, dated 2015).

Key:
[1] = test system: mGlu2+/+ mice; assay: mFST in mGlu2+/+ littermate mice; assay type: in vivo, mouse; details: 10 mg/kg, i.p., 30 min prior
[2] = target: hERG channel (Homo sapiens, UniProt Q12809); assay: Off-target activity, known assay methods: hERG
Description: (§1) Further, certain compounds of the present invention show a lack of significant activity at other physiologically important receptors such as, but not limited to, the hERG channel, serotonin receptors (specifically 5-HT2A and 5-HT2B), muscarinic receptors (specifically M2), and iGluR receptors (specifically iGluR5).

[3] = target: T1, muscarinic receptor M2 (Homo sapiens, UniProt P08172); assay: Off-target activity, known assay methods: M2
T1 sequence (P08172 1-466): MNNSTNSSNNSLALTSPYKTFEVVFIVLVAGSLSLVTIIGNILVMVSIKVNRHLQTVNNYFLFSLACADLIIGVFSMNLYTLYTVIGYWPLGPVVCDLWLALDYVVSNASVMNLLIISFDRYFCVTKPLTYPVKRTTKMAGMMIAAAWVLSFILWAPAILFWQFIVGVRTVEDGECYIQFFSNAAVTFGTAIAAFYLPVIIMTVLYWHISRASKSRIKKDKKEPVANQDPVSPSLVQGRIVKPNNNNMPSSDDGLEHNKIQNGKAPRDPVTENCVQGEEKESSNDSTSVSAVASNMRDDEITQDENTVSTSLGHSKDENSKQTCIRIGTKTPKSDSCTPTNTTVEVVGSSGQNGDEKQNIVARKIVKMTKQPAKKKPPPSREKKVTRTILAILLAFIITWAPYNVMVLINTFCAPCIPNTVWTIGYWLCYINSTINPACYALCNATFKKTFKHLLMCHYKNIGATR
Description: as §1

Chain of hERG channel (Q12809 whole entry): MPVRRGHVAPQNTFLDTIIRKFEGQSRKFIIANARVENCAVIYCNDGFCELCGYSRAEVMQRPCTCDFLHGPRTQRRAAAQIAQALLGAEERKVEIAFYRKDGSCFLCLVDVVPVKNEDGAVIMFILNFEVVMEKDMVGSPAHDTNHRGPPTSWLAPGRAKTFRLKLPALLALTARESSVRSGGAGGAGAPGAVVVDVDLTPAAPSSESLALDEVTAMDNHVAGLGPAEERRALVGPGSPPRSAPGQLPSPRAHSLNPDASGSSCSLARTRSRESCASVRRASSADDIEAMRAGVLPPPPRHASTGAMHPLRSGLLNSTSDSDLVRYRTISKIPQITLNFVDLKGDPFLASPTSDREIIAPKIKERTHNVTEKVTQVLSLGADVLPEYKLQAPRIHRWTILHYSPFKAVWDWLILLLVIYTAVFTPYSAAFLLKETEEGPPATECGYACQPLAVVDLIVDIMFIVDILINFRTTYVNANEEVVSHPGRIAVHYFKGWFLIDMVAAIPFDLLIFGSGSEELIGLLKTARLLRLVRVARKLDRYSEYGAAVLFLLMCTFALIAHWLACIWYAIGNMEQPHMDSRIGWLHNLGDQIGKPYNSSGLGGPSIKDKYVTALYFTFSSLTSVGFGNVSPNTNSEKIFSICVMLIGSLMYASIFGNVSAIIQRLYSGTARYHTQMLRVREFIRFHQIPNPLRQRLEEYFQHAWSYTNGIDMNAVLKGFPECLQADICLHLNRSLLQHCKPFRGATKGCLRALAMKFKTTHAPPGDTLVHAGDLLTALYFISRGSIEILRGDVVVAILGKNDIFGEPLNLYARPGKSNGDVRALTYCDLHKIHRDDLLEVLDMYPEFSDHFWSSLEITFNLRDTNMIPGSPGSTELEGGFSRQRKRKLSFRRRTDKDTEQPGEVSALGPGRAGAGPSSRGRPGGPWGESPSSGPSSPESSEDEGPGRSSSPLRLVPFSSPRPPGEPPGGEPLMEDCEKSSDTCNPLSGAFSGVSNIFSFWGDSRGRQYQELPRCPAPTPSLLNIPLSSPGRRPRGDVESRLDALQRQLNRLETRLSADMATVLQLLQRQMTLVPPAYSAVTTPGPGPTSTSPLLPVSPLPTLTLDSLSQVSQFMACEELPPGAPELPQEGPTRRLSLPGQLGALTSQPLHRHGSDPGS

activity at M2 [3]: no appreciable activity
SMILES: N[C@]1(C(=O)O)[C@@H]2[C@@H](C(=O)O)[C@@H]2[C@H](O)[C@H]1OCc1ccc(Cl)c(Cl)c1 [Example 1, (1S,2R,3S,4S,5R,6R)-2-Amino-3-[(3,4-dichlorobenzyl)oxy]-4-hydroxybicyclo[3.1.0]hexane-2,6-dicarboxylic acid]
immobility time [1]: significantly decrease immobility time | activity at the hERG channel [2]: no appreciable activity
